Assay results: US4221781A, “Synergistic penicillin-cephalosporin compositions and methods” (priority 1971, dated 1980)
Read-outs that look alike come from different tables or passages of the source. Values belong to the compound of their own block, whether it stands above or below them.

How the values were obtained:
Type in all cases: cell-based
[1] = system: Proteus (Proteus Mirabilis I 190); test: Example 11: in vitro M.I.C. of II, cephalosporins and 1:1 combinations
Experimental: (§1) Tryptose phosphate broth, containing the appropriate concentrations of the compounds or of the combination of them, was inoculated with 0.5×10^4 -5×10^4 organisms of the various microorganisms tested and incubated overnight at 37° C. Minimum inhibitory concentrations (M.I.C.) were taken as the concentrations of the compounds or of the combination at which no visible growth occurred.
Using the same technique as described in Example 1 the in vitro activity of 6-[(hexahydro-1H-azepin-1-yl)methyleneamino]penicillanic acid (II), of various cephalosporins and of 1:1 combinations of II with these cephalosporins was determined against a clinically isolated strain of Proteus (Proteus Mirabilis I 190).

[2] = system: Klebsiella-Enterobacter (strain 4/71); test: Example 10: in vitro M.I.C. of II, cephalosporins and 1:1 combinations
Experimental: as §1
Using the same technique as described in Example 1 the in vitro activity of 6-[(hexahydro-1H-azepin-1-yl)methyleneamino]penicillanic acid (II), of various cephalosporins previously mentioned in this specification, and of 1:1 combinations of II with these cephalosporins was determined against a clinically isolated strain of Klebsiella-Enterobacter (strain 4/71)

[3] = system: clinically isolated coliform bacterium; test: Example 5: in vitro M.I.C. of IV, various penicillins and 1:1 combinations
Experimental: as §1
Using the same technique as described in Example 1 the in vitro activity of 6[(piperidyl-1)-methyleneamino]-penicillianic acid (IV), of various penicillins, and of 1:1 combinations of IV with these penicillins, was determined against a clinically isolated coliform bacterium.

[4] = system: Klebsiella-Enterobacter; test: Example 9: in vitro MIC, serial dilution test, Klebsiella-Enterobacter; conditions: read-out: MIC
Experimental: as §1
(§2) Using the technique described in Example 1 the in vitro effect of combinations of 6-(D-α-aminophenylacetamido)-penicillanic acid (I) and 6-[(N,N-diethylformamidino)-N'-amino]penicillanic acid (VII) in the ratios 1:1, 1:2 and 2:1 against clinically isolated strains of Coliforma, Klebsiella-Enterobacter and Proteus was determined in serial dilution tests.

[5] = system: Proteus; test: Example 9: in vitro MIC, serial dilution test, Proteus; conditions: Proteus strain 9; read-out: MIC
Experimental: as §1, §2

[6] = system: Coliforma; test: Example 9: in vitro MIC, serial dilution test, Coliforma
Experimental: as §1, §2

[7] = Proteus Mirabilis I 190, read-out: M.I.C.
[8] = Klebsiella-Enterobacter strain 4/71, read-out: M.I.C.

MIC [1, 7]: 12.5 µg/mL
MIC [2, 8]: 50 µg/mL
SMILES: CC(=O)OCC1=C(C(=O)O)N2C(=O)[C@@H](NC(=O)CC#N)[C@H]2SC1 [Cephacetrile]

MIC [1, 7]: 50 µg/mL
MIC [2, 8]: > 100 µg/mL
SMILES: CC(=O)OCC1=C(C(=O)O)N2C(=O)C(NC(=O)Cc3cccc(Cl)c3)C2SC1 (centres unmarked) [EPC 820/1b]

SMILES: CC1(C)S[C@@H]2[C@H](NC(=O)Cc3ccccc3)C(=O)N2[C@H]1C(=O)O [benzylpenicillin]
MIC [3]: 25 µg/mL

SMILES: CC1(C)S[C@@H]2[C@H](NC(=O)C(C(=O)O)c3ccccc3)C(=O)N2[C@H]1C(=O)O (stereo partly drawn) [α-carboxybenzylpenicillin]
MIC [3]: 12.5 µg/mL

SMILES: CC1(C)S[C@@H]2[C@H](NC(=O)[C@H](N=[N+]=[N-])c3ccccc3)C(=O)N2[C@H]1C(=O)O [6-(D-α-azidophenylacetamido)penicillanic acid]
MIC [3]: 50 µg/mL

SMILES: CCN(C=NC1C(=O)N2C1SC(C)(C)C2C(=O)O)CC (centres unmarked) [VII, 6-[(N,N-diethylformamidino)-N'-amino]penicillanic acid]
MIC ([4]; Klebsiella-Enterobacter strain 1): > 100 µg/mL
MIC ([4]; Klebsiella-Enterobacter strain 5): > 100 µg/mL
MIC ([4]; Klebsiella-Enterobacter strain 7): > 100 µg/mL
MIC ([4]; Klebsiella-Enterobacter strain 8): 12.5 µg/mL
MIC [5]: 100 µg/mL
MIC ([6]; Coliforma strain 1): 3.12 µg/mL
MIC ([6]; Coliforma strain 4): 3.12 µg/mL
MIC ([6]; Coliforma strain 7): 6.25 µg/mL
MIC ([6]; Coliforma strain 16): 6.25 µg/mL

SMILES: CC(=O)OCC1=C(C(=O)O)N2C(=O)[C@@H](NC(=O)Cc3cccs3)[C@H]2SC1 [VI, cephalotin]
MIC [1]: 3.12 µg/mL
MIC [2]: 50 µg/mL

SMILES: O=C(Cc1cccs1)N[C@@H]1C(=O)N2C(C(=O)[O-])=C(C[n+]3ccccc3)CS[C@H]12 [Cephaloridine]
MIC [1, 7]: 6.25 µg/mL
MIC [2, 8]: 25 µg/mL
